Experimental data reported in patent publication US9216999B2, “Substituted pyrrolo[2,3-h][1,6]naphthyridines and compositions thereof as JAK inhibitors” (priority 2011, dated 2015).

Experiments:
Assay type in all cases: biochemical
Conditions in all cases: ATP 100 μM
JAK2 = JAK2 (Homo sapiens (Human), UniProt O60674); assay: Enzyme assay (Assay Example^a 1), JAK2
Tyk2 = Tyk2 (Homo sapiens (Human), UniProt P29597); assay: Enzyme assay (Assay Example^a 1), Tyk2
JAK1 = JAK1 (Homo sapiens (Human), UniProt P23458); assay: Enzyme assay (Assay Example^a 1), JAK1
JAK3 = JAK3 (Homo sapiens (Human), UniProt P52333); assay: Enzyme assay (Assay Example^a 1), JAK3
Chain of JAK3 (P52333 whole entry): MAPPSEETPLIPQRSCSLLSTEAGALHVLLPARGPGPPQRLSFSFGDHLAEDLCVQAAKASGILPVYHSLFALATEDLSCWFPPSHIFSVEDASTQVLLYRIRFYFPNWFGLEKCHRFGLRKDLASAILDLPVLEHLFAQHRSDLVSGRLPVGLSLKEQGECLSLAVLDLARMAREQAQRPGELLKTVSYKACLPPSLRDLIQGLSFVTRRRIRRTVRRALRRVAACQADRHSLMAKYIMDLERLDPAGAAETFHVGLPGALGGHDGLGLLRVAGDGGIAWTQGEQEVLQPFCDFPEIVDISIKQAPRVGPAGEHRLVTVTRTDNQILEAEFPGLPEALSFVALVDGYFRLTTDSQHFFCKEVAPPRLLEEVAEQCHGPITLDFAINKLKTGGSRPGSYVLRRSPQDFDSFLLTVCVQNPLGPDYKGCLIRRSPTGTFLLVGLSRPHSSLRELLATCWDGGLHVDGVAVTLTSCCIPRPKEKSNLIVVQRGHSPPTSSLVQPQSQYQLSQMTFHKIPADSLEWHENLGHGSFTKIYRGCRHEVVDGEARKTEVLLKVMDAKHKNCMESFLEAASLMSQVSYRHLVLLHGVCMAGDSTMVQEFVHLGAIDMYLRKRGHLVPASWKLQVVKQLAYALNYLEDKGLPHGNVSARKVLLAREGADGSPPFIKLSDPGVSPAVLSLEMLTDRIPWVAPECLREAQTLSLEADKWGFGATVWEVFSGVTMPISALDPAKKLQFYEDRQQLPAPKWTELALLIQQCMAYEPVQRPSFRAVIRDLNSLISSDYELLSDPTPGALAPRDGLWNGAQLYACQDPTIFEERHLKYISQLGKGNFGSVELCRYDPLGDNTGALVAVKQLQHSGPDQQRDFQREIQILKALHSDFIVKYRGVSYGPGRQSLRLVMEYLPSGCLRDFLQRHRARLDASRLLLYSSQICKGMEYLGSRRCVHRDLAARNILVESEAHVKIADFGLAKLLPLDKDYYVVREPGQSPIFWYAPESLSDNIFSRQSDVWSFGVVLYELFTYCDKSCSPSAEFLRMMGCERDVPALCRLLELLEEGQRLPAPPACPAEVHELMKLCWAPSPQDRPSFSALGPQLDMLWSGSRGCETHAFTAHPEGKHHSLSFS

Chain of Tyk2 (P29597 whole entry): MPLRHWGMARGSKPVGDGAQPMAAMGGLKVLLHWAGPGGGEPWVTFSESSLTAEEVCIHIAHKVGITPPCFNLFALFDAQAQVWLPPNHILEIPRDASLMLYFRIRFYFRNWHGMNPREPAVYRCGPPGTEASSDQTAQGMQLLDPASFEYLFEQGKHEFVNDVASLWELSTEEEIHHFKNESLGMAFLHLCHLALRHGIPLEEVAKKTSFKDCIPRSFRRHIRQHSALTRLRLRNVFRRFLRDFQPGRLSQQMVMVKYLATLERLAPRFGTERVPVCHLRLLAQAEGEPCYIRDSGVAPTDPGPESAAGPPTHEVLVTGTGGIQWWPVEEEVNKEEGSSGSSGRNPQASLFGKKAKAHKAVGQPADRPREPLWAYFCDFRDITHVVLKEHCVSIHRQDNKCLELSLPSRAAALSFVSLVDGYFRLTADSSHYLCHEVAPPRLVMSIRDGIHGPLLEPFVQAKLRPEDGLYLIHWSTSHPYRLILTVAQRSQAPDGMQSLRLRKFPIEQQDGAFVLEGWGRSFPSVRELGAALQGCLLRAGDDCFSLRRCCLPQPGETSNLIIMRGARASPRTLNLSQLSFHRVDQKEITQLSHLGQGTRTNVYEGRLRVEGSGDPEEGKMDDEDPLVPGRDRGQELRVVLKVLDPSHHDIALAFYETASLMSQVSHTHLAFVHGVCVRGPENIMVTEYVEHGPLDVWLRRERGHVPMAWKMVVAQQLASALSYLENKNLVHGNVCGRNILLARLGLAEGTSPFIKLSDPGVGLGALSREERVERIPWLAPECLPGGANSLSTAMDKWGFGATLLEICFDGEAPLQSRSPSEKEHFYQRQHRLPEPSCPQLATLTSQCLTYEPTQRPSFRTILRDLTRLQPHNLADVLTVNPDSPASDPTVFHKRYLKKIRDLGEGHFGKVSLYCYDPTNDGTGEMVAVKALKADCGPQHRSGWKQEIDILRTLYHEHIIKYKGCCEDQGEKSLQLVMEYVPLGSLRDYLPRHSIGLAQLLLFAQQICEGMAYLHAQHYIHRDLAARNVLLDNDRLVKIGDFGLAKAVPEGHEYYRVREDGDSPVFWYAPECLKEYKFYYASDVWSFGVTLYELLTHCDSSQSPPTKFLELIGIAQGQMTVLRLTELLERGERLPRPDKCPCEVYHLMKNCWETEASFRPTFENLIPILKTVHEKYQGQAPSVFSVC

Row | SMILES | IC50 (JAK2) [µM] | IC50 (Tyk2) [µM] | IC50 (JAK1) [µM] | IC50 (JAK3) [µM]
1 | c1cc2c(ncn3nnc([C@H]4CC[C@H](CN5CCCC5)CC4)c23)[nH]1 [compound 287, 1-[trans-4-(pyrrolidin-1-ylmethyl)cyclohexyl]-7H-pyrrolo[3,2-e][1,2,3]triazolo[1,5-c]pyrimidine] | 0.077 | 0.33 | 0.0065 | > 1
2 | CC1CC1NC[C@H]1CC[C@H](c2nnn3cnc4[nH]ccc4c23)CC1 (stereo partly drawn) [compound 291, N-{[trans-4-(7H-pyrrolo[3,2-e][1,2,3]triazolo[1,5-c]pyrimidin-1-yl)cyclohexyl]methyl}-2-methylcyclopropanamine] | 0.1 | 0.14 | 0.0053 | 0.67
3 | FC(F)(F)C1(NC[C@H]2CC[C@H](c3nnn4cnc5[nH]ccc5c34)CC2)CC1 [compound 292, N-{[trans-4-(7H-pyrrolo[3,2-e][1,2,3]triazolo[1,5-c]pyrimidin-1-yl)cyclohexyl]methyl}-1-(trifluoromethyl)cyclopropanamine] | 0.017 | 0.27 | 0.0027 | 0.39
4 | COCC1(NC[C@H]2CC[C@H](c3nnn4cnc5[nH]ccc5c34)CC2)CC1 [compound 293, N-{[trans-4-(7H-pyrrolo[3,2-e][1,2,3]triazolo[1,5-c]pyrimidin-1-yl)cyclohexyl]methyl}-1-(methoxymethyl)cyclopropanamine] | 0.1 | 0.31 | 0.024 | 0.94
5 | c1cc2c(ncn3nnc([C@H]4CC[C@H](CNC5COC5)CC4)c23)[nH]1 [compound 294, N-{[trans-4-(7H-pyrrolo[3,2-e][1,2,3]triazolo[1,5-c]pyrimidin-1-yl)cyclohexyl]methyl}oxetan-3-amine] | 0.12 | 0.34 | 0.022 | 0.48
6 | CC1(NC[C@H]2CC[C@H](c3nnn4cnc5[nH]ccc5c34)CC2)CC1 [compound 295, N-{[trans-4-(7H-pyrrolo[3,2-e][1,2,3]triazolo[1,5-c]pyrimidin-1-yl)cyclohexyl]methyl}-1-methylcyclopropanamine] | 0.064 | 0.33 | 0.0069 | 0.84
7 | CN(C)C[C@H]1CC[C@H](c2nnn3cnc4[nH]ccc4c23)CC1 [compound 296, 1-[trans-4-(7H-pyrrolo[3,2-e][1,2,3]triazolo[1,5-c]pyrimidin-1-yl)cyclohexyl]-N,N-dimethylmethanamine] | 0.065 | 0.19 | 0.0038 | 0.73
8 | CN(CCO)C[C@H]1CC[C@H](c2nnn3cnc4[nH]ccc4c23)CC1 [compound 297, 2-({[trans-4-(7H-pyrrolo[3,2-e][1,2,3]triazolo[1,5-c]pyrimidin-1-yl)cyclohexyl]methyl}(methyl)amino)ethanol] | 0.1 | 0.32 | 0.0095 | > 1
9 | OCCN(CCO)C[C@H]1CC[C@H](c2nnn3cnc4[nH]ccc4c23)CC1 [compound 298, 2,2′-({[trans-4-(7H-pyrrolo[3,2-e][1,2,3]triazolo[1,5-c]pyrimidin-1-yl)cyclohexyl]methyl}azanediyl)diethanol] | 0.11 | 0.59 | 0.019 | > 1
10 | CC(C)(C)OC(=O)N[C@@H]1CCN(C[C@H]2CC[C@H](c3nnn4cnc5[nH]ccc5c34)CC2)C1 [compound 299, tert-butyl ((R)-1-{[trans-4-(7H-pyrrolo[3,2-e][1,2,3]triazolo[1,5-c]pyrimidin-1-yl)cyclohexyl]methyl}pyrrolidin-3-yl)carbamate] | 0.17 | > 1 | 0.016 | > 1
11 | N#CCCN(C[C@H]1CC[C@H](c2nnn3cnc4[nH]ccc4c23)CC1)c1ccccc1 [compound 300, 3-({[trans-4-(7H-pyrrolo[3,2-e][1,2,3]triazolo[1,5-c]pyrimidin-1-yl)cyclohexyl]methyl}(phenyl)amino)propanenitrile] | 0.059 | > 1 | 0.025 | 0.75
12 | N#C[C@@H]1CCN(C[C@H]2CC[C@H](c3nnn4cnc5[nH]ccc5c34)CC2)C1 [compound 301, (R)-1-{[trans-4-(7H-pyrrolo[3,2-e][1,2,3]triazolo[1,5-c]pyrimidin-1-yl)cyclohexyl]methyl}pyrrolidine-3-carbonitrile] | 0.072 | > 1 | 0.024 | 0.96
13 | CN(CCC#N)C[C@H]1CC[C@H](c2nnn3cnc4[nH]ccc4c23)CC1 [compound 302, 3-({[trans-4-(7H-pyrrolo[3,2-e][1,2,3]triazolo[1,5-c]pyrimidin-1-yl)cyclohexyl]methyl}(methyl)amino)propanenitrile] | 0.029 | 0.36 | 0.012 | 0.49
14 | OC12CC3CC(C1)C(NC[C@H]1CC[C@H](c4nnn5cnc6[nH]ccc6c45)CC1)C(C3)C2 (stereo partly drawn) [compound 303, (1S,3R,4r,5S,7S)-4-({[trans-4-(7H-pyrrolo[3,2-e][1,2,3]triazolo[1,5-c]pyrimidin-1-yl)cyclohexyl]methyl}amino)adamantan-1-ol] | 0.35 | > 1 | 0.057 | > 1
15 | OC12CC3CC(C1)C(NC[C@H]1CC[C@H](c4nnn5cnc6[nH]ccc6c45)CC1)C(C3)C2 (stereo partly drawn) [compound 304, (1S,3R,4s,5S,7S)-4-({[trans-4-(7H-pyrrolo[3,2-e][1,2,3]triazolo[1,5-c]pyrimidin-1-yl)cyclohexyl]methyl}amino)adamantan-1-ol] | 0.27 | > 1 | 0.049 | > 1
16 | O[C@H]1CC[C@H](NC[C@H]2CC[C@H](c3nnn4cnc5[nH]ccc5c34)CC2)CC1 [compound 305, trans-4-({[trans-4-(7H-pyrrolo[3,2-e][1,2,3]triazolo[1,5-c]pyrimidin-1-yl)cyclohexyl]methyl}amino)cyclohexanol] | 0.29 | > 1 | 0.046 | > 1
17 | OCCN(C[C@H]1CC[C@H](c2nnn3cnc4[nH]ccc4c23)CC1)C1CCCCC1 [compound 306, 2-({[trans-4-(7H-pyrrolo[3,2-e][1,2,3]triazolo[1,5-c]pyrimidin-1-yl)cyclohexyl]methyl}(cyclohexyl)amino)ethanol] | 0.054 | 0.62 | 0.015 | > 1
18 | CC(C)(C)OC(=O)N[C@H]1CCN(C[C@H]2CC[C@H](c3nnn4cnc5[nH]ccc5c34)CC2)C1 [compound 307, tert-butyl ((S)-1-{[trans-4-(7H-pyrrolo[3,2-e][1,2,3]triazolo[1,5-c]pyrimidin-1-yl)cyclohexyl]methyl}pyrrolidin-3-yl)carbamate] | 0.26 | > 1 | 0.0066 | > 1
19 | Clc1ccc(C2(NC[C@H]3CC[C@H](c4nnn5cnc6[nH]ccc6c45)CC3)COC2)cc1 [compound 308, N-{[trans-4-(7H-pyrrolo[3,2-e][1,2,3]triazolo[1,5-c]pyrimidin-1-yl)cyclohexyl]methyl}-3-(4-chlorophenyl)oxetan-3-amine] | 0.012 | 0.79 | 0.0024 | 0.24
